# From patent US6608103B2, “Inhibitor for neovasculation, cell multiplication, lumen formation and FGF” (Fuji Chemical Industry Co., Ltd., priority 2001, dated 2003)
# Entries after “also recorded” stand apart in the source; their conditions may differ.
# Legend:
# BAEC [1] = assay: Cell multiplication of BAEC, survival rate of cells using WST-1; type: cell-based, bovine; conditions: for Survival Rate of Cells (% of control): 24 hours, WST-1
# Procedure: Influence of tocotrienols on cell multiplication of BAEC was examined in various concentrations. The cell multiplication was evaluated by determining the survival rate of cells using WST-1, which makes it possible to conduct high sensitivity measurement, instead of conventional MTT.
# As a blank, the culture medium alone was incubated without adding cells. […] The microplate was taken out after 24 hours from placing the culture medium containing a sample. 10 μl/well of WST-1 solution was added to each well, and incubated in a CO2 incubator. After 3 hours, absorbance at 450 nm and 655 nm (dual) of each well was measured by a microplate reader.
# The samples employed were DL-α-tocotrienol, DL-γ-tocotrienol and DL-δ-tocotrienol. In the case of Control group I, no sample was added.
# The survival rate of cells was determined by the following formula:
# Survival Rate of Cells=(S−B)/(C−B)×100(%)
# The results of Table 10 were made in a graph shown in FIG. 1, and median growth inhibition concentration (IC50) was determined from the graph. In the figure, the numbers on the ordinate indicate the survival rate of cells (% of control), and the numbers on the abscissa indicate concentration (μM). ● is DL-α-tocotrienol, ▪ is DL-β-tocotrienol, Δ is DL-γ-tocotrienol, and X is DL-δ-tocotrienol, respectively.
# BAEC [2] = assay: Effects of tocotrienols on multiplication of BAEC, MTT assay; type: cell-based, bovine; conditions: for Absorbance: MTT, sample 10 μM
# Procedure: Normal bovine aortic endothelial cells (BAEC) were manufactured by Cell Systems Co., and purchased through Dainippon Seiyaku Co., Ltd.
# A cell suspension was prepared by adding the cells to MEM (Sigma Chemical Co.) containing 10 v/v (%) fetal bovine serum (FBS), 20 IU/ml penicillin and 20 IU/ml streptomycin (MEM+10% FBS) in a concentration of 1×10^5 cells/ml, and cultured in a 5% CO2 incubator at 37° C. by using a 60 mm dish coated with type I collagen with subculturing every 2 to 3 days.
# Each of the above samples was added to MEM containing 2% (v/v) FBS, 20 IU/ml penicillin and 20 IU/ml streptomycin (MEM+2% FBS), and subjected to testing.
# Effects of tocotrienols on the multiplication of BAEC were examined by using MTT assay.
# (§1) Each one microplate was taken out after 0, 24, 48 or 96 hours from placing the culture medium containing a sample. In the case of the microplate taken out after 96 hours, the culture medium was once changed after 48 hours. 3 mg/ml MTT solution PBS (−) was put in each well in an amount of 50 μl/well, and incubated for 3 hours in a CO2 incubator. After filling each well with phosphate buffered saline (PBS(−)), liquid in each well was evacuated, and isopropyl alcohol containing 0.04 mol/l HCL was put in each well in an amount of 200 μl/well. The microplates were allowed to stand overnight in a dark place, and then, absorbance at 595 nm and 655 nm (dual) was measured by a microplate reader.
# In the case of Control group A, no sample was added.
# BAEC [3] = assay: Inhibition against lumen formation induced by FGF; type: cell-based, bovine; parameters: key to Lumen Formation: ↑: Accelerated; /: Tendency to increase; No change; ↓: Inhibited; ↓↓: Strongly inhibited
# Procedure: (§2) Eight parts by volume of “Vitrogen Collagen” (Collagen Co.), 1 part by volume of 0.1 N NaOH and 1 part by volume of ×10 MEM (GIBCO BRL) were placed in a tube, and mixed quickly in an ice bath. The culture solution was removed by suction, and 0.5 ml/well of the above mixture containing collagen was pipetted into each well. The microplate was placed in a CO2 incubator for about 30 minutes to gelatinize it. 1.5 ml of a medium (MEM | 2% FBS) containing a sample was added, and continued to incubate while changing the medium every second day.
# (§3) The variation of cells were observed by a microscope by taking a photograph, and lumen formation was evaluated by counting the number of branches of cells forming lumen.
# The test was carried out similar to Examples 12-14, wherein FGF was added together with each tocotrienol. In the case of Control group E, no sample was added. […]
# BAEC [4] = assay: Inhibitory action against FGF activity, MTT assay on BAEC with FGF 20 ng/ml; type: cell-based, bovine; parameters: key to Cell Multiplication: ↑: Accelerated; /: Tendency to increase; No change; ↓: Inhibited; ↓↓: Strongly inhibited; conditions: for Absorbance: MTT, FGF 20 ng/ml + sample 10 μM
# Procedure: The fibroblast growth factor sample was prepared by dissolving a commercial FGF (Sigma Chemical Co.) in MEM (Sigma Chemical Co.)
# as §1
# In the case of Control group B, no sample was added.
# BAEC [5] = assay: Neovasculation / lumen formation of BAEC between two layers of type I collagen gel; type: cell-based, bovine
# Procedure: BAEC was cultured between two layers of type I collagen gel, and a lumen-like netting structure formed therebetween was evaluated.
# as §2, §3
# The inhibition test against lumen formation was carried out in the same manner as Example 15, except that α-tocopherol was substituted for DL-α-tocotrienol.
# BAEC [6] = assay: Cell damage action (LDH) with FGF added; conditions: FGF 20 ng/ml + sample 10 μM
# Procedure: (§4) BAEC with confluent growth were treated with trypsin, and suspended in MEM | 10% FBS in a concentration of 5×10^4 cell/ml. The cell suspension was placed in each well of a 96 well-microplate in an amount of 100 μl/well, and incubated overnight in a CO2 incubator. The culture solution in each well was removed, and changed to 100 μl culture medium (MEM+2% FBS) containing a sample to continue incubation. In the experiment, MEM+2% FBS was employed as a negative control (NC), and 2% Tween 20 dissolved in MEM | 2% FBS was employed as a positive control (PC). After 48 hours, 50 μl culture medium in each well was transferred to a new well, and the color producing reagent in the kit was added to the new wells in an amount of 50 μl/well. After incubating for 45 minutes at room temperature, reaction was terminated by adding 100 μl of 0.5 N HCL/well, and absorbance at 595 nm was measured. The rate of cell damage was determined by the following formula:
# (§5) Rate of Cell Damage=(S−N)/(P−N)×100(%)
# Cell damage action of DL-α-tocotrienol, DL-β-tocotrienol, DL-γ-tocotrienol, DL-δ-tocotrienol and the tocotrienol mixture was examined against FGF. […] In Control group H, no sample was added.
# The assay was carried out in the same manner as Example 36, except that the tocotrienol was replaced by α-tocopherol.
# BAEC [7] = assay: Measurement of LDH activity, rate of cell damage of BAEC
# Procedure: A rate of cell damage of BAEC by the sample was evaluated by measuring free LDH activity in a culture medium using a kit for LDH-cytotoxicity testing (Wako Co.)
# as §4, §5
# N: Absorbance of negative control
# P: Absorbance of positive control
# In Control group G, no sample was added.
# The assay was carried out in the same manner as Example 30, except that the tocotrienol was replaced by α-tocopherol.
# [8] = summary, FGF (20 ng/ml) + sample (10 μM)
compound,measurement,setting,value
"CC(C)=CCC/C(C)=C/CC/C(C)=C/CC[C@]1(C)CCc2cc(O)c(C)c(C)c2O1 (racemic) [DL-γ-Tocotrienol, γ-tocotrienol]",Survival Rate of Cells (% of control),BAEC [1]; 10 μM,102.3 ± 10.8 % of control
same,Survival Rate of Cells (% of control),BAEC [1]; 12 μM,15.5 ± 4.5 % of control
same,Survival Rate of Cells (% of control),BAEC [1]; 14 μM,3.4 ± 3.1 % of control
same,Survival Rate of Cells (% of control),BAEC [1]; 16 μM,0.0 ± 0.1 % of control
same,Survival Rate of Cells (% of control),BAEC [1]; 18 μM,2.0 ± 2.8 % of control
same,IC50,"BAEC [1]; determined from the graph of FIG. 1 (abscissa μM), read-out: median growth inhibition concentration (IC50)",11 µM
same,inhibitory action against cell multiplication,"BAEC [2]; 10 μM, Table 1",remarkable inhibitory action
same,Absorbance,BAEC [2]; 0 hr,0.101 ± 0.002
same,Absorbance,BAEC [2]; 24 hrs,0.020 ± 0.001
same,Absorbance,BAEC [2]; 48 hrs,0.010 ± 0.002
same,Absorbance,BAEC [2]; 96 hrs,0.003 ± 0.000
same,inhibition of lumen formation induced by FGF,BAEC [3]; 10 μM + FGF 20 ng/ml,inhibited the lumen formation induced by FGF; also recorded: exhibit inhibitory action against lumen formation
same,Number of Cells Forming Lumen/cm^2,BAEC [3]; sample 10 μM + FGF 20 ng/ml,12.50 ± 3.20 /cm^2
same,Lumen Formation,BAEC [3]; [8],↓
same,Absorbance,BAEC [4]; 0 hr,0.042 ± 0.002
same,Absorbance,BAEC [4]; 24 hrs,0.085 ± 0.004
same,Absorbance,BAEC [4]; 48 hrs,0.232 ± 0.016
same,Absorbance,BAEC [4]; 96 hrs,0.431 ± 0.011
same,Cell Multiplication,BAEC [4]; [8],↑
same,inhibition of lumen formation,BAEC [5]; 10 μM,inhibited lumen formation sufficiently
same,Number of Cells Forming Lumen/cm^2,"BAEC [5]; Table 4, 10 μM",4.75 ± 0.48 /cm^2
same,Rate of Cell Damage (% of control),BAEC [6],101.15 ± 2.38 % of control
same,activity to damage cells,"BAEC [7]; 10 μM, Table 7",have an activity to damage cells
same,Rate of Cell Damage (% of control),"BAEC [7]; Table 7, 10 μM, 48 hours",265.33 ± 3.18 % of control
